Calls of active or inactive are those of the source. No cut-off for these calls is given here.
Key:
Hippocampus = assay: Induction of neuroplasticity in C57BL/6J mouse assessed as increase in EGR2 mRNA expression in brain hippocampus at 0.3 mg/kg, sc single dose by RT-PCR analysis; type: functional, organism-based
[1] = Drug excretion in Wistar rat urine at 5 mg/kg, po measured upto 48 hrs; type: ADME, organism-based; conditions: read-out: Drug excretion
[2] = Clearance in beagle dog at 0.4 mg/kg, iv measured upto 24 hrs; type: ADME, organism-based, Canis lupus familiaris; conditions: in vivo
[3] = molecular target: T1, 5-hydroxytryptamine receptor 2C (Homo sapiens, UniProt P28335); assay: Binding affinity to human [125I]LSD-labeled 5-HT2C receptor expressed in HEK293 cell membrane incubated for 60 mins; type: cell membranes
T1 sequence (P28335 whole entry): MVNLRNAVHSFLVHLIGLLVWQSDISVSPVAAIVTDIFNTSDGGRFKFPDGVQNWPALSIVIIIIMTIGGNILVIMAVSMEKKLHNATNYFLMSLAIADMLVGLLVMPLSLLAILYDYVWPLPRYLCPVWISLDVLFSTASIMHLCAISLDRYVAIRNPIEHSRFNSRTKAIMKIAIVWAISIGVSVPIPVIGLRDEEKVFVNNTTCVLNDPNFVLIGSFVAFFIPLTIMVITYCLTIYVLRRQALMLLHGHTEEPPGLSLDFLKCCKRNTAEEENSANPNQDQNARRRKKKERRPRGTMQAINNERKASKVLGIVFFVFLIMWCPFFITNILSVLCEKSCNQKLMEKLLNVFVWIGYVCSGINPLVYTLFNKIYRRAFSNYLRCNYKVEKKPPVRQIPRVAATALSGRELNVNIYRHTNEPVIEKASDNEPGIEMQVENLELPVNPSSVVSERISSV

Mus musculus [4] = assay: Induction of neuroplasticity in C57BL/6J mouse assessed as increase in EGR2 mRNA expression in brain frontal cortex at 0.3 mg/kg, sc single dose by RT-PCR analysis; type: functional, organism-based
[5] = MRTinf in male Sprague-Dawley rat CSF at 1 mg/kg, iv measured upto 8 hrs by LC-MS/MS analysis; type: ADME, organism-based, Cerebrospinal fluid
Mus musculus [6] = assay: Psychedelic effect in C57BL/6J mouse assessed as induction of 5-HT2A receptor dependent head-twitch responses by visual observation at 1 to 10 mg/kg, po measured for 120 to 150 mins relative to DOI; type: functional, organism-based; conditions: dose 1-10 mg/kg, time lower […], time upper 150.0 min
[7] = Ex vivo binding in C57BL/6J mouse brain frontal cortex assessed as specific binding [3H]Cimbi-36 at 1 mg/kg, sc measured after 5 mins by liquid scintillation counting analysis (reference value: 1092 +/- 53); type: functional
[8] = molecular target: T2, 5-hydroxytryptamine receptor 1A (Homo sapiens) (UniProt P08908); assay: Agonist activity at human 5-HT1A receptor expressed in HEK293T cells co-transfected with 22F-Glosensor assessed as maximal inhibition of cAMP production measured after 30 mins incubation by Microbeta2Micro-plate counter analysis relative to control; type: functional, cell-based; conditions: filed as agonist
T2 sequence (whole entry): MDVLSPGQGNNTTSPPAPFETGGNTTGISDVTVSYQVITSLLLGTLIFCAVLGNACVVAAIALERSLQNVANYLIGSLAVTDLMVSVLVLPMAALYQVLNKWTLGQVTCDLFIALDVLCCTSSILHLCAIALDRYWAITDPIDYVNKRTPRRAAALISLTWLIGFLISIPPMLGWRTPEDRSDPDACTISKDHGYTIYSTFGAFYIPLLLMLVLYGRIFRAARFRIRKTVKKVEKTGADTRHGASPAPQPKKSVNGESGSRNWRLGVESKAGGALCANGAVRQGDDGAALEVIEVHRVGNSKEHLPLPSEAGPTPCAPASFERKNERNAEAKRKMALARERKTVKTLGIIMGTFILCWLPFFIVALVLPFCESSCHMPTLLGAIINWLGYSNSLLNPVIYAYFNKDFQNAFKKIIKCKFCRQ

[9] = AUClast in male Sprague-Dawley rat brain at 1 mg/kg, iv measured upto 8 hrs by LC-MS/MS analysis; type: ADME, organism-based
[10] = MRTinf in male Sprague-Dawley rat plasma at 1 mg/kg, iv measured upto 8 hrs by LC-MS/MS analysis; type: ADME, organism-based
Homo sapiens [11] = species: Homo sapiens; assay: Selectivity ratio, ratio of Ki for human 5-HT2B receptor to human 5-HT2A receptor
[12] = molecular target: 5-hydroxytryptamine receptor 2A (Homo sapiens, UniProt P28223); assay: Agonist activity at human 5-HT2A receptor expressed in HEK293 cells assessed as maximal IP2 production measured after 30 mins incubation by HTRF assay relative to control; type: functional, cell-based; conditions: filed as agonist
5-hydroxytryptamine receptor 2A, sequence (P28223 whole entry): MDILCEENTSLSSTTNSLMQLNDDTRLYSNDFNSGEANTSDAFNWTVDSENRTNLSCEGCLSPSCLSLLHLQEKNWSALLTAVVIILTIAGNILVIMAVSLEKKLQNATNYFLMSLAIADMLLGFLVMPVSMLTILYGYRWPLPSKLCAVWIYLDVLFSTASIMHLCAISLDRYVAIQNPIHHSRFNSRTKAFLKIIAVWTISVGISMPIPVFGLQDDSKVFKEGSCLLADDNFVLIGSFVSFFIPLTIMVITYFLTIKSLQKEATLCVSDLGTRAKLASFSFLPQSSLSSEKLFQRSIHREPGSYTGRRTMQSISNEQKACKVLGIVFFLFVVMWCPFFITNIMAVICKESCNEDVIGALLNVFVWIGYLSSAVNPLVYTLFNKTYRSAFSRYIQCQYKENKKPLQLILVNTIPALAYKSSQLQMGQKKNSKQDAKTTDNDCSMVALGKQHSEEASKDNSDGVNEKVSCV

Mus musculus [13] = assay: Psychedelic effect in C57BL/6J mouse assessed as induction of 5-HT2A receptor dependent maximal head-twitch responses by visual observation at 1 to 3 mg/kg, sc at 40 mins post- administration measured upto 360 mins; type: functional, organism-based; conditions: dose 1-3 mg/kg
[14] = Tmax in Wistar rat brain at 1 mg/kg, iv measured upto 48 hrs; type: ADME, organism-based
[15] = molecular target: Voltage-dependent L-type calcium channel subunit alpha-1C (Homo sapiens, UniProt Q13936); assay: Binding affinity to human Calcium channel L-type (verapamil site) at 10 uM measured after 180 mins by [3H]D888-Radiometric assay relative to control
Voltage-dependent L-type calcium channel subunit alpha-1C, sequence (Q13936 whole entry): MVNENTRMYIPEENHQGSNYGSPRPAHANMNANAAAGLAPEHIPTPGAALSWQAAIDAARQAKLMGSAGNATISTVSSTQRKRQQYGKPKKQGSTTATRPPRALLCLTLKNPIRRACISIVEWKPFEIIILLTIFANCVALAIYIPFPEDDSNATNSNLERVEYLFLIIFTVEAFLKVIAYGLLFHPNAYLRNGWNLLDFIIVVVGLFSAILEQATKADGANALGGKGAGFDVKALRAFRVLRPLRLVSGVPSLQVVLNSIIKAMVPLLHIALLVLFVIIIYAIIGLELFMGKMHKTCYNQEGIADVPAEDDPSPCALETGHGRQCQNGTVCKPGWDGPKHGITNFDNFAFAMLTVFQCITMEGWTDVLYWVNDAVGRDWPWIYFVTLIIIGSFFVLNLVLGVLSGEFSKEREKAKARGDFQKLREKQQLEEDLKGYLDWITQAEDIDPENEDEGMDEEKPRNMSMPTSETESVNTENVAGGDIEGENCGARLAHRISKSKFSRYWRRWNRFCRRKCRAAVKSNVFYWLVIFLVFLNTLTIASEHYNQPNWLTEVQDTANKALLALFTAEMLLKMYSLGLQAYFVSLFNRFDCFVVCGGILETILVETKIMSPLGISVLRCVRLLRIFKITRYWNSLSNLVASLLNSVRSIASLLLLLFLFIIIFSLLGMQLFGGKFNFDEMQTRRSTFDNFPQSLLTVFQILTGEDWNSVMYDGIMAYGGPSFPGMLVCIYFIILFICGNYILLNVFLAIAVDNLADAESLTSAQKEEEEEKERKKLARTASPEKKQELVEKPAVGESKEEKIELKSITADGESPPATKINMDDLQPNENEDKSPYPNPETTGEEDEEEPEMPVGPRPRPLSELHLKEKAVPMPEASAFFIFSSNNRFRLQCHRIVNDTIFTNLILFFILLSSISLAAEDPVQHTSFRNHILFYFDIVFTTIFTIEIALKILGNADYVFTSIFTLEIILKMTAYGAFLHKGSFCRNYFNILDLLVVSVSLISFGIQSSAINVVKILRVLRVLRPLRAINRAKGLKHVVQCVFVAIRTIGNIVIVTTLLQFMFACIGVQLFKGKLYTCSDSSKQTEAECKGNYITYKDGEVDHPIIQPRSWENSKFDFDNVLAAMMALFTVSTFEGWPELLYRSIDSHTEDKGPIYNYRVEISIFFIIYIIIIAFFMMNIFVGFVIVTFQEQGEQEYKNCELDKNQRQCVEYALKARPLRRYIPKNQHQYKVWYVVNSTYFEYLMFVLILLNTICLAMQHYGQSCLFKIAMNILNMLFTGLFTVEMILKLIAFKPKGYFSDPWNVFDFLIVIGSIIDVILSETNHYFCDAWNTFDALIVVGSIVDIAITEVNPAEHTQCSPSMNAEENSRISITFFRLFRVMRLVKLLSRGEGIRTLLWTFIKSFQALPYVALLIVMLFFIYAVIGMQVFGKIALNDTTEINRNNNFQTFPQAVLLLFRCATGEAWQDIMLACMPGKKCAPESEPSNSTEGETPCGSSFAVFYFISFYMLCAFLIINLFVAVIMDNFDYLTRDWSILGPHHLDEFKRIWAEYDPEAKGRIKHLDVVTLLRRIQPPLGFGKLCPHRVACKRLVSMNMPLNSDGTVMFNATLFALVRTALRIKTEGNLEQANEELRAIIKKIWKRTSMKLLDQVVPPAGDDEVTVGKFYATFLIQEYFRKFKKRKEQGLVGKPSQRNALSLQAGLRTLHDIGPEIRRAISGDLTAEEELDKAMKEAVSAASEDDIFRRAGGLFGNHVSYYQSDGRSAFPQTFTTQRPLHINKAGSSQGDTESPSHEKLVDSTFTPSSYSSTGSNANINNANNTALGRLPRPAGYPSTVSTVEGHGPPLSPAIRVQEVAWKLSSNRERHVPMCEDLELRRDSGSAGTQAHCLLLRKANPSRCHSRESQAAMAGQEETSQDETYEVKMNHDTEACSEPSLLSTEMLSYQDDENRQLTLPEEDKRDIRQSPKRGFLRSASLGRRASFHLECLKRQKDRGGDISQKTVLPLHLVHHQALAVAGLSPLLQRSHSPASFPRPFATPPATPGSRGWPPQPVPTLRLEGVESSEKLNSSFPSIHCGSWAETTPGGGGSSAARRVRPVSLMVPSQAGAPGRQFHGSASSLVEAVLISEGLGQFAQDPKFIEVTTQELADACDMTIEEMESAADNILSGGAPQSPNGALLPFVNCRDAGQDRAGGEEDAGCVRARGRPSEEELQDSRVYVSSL

[16] = Unbound concentration in male Sprague-Dawley rat brain homogenate at 1 mg/kg, iv measured upto 8 hrs by LC-MS/MS analysis; type: ADME, organism-based
[17] = Drug metabolism in rat hepatocytes assessed as formation of sulfoxide with N-acetylation/0-glucuronidations metabolites at 10 uM by HRAMS analysis; type: ADME, cell-based, Hepatocyte
[18] = AUCinf in Wistar rat brain at 1 mg/kg, iv measured upto 48 hrs; type: ADME, organism-based
Homo sapiens [19] = species: Homo sapiens; assay: Selectivity ratio, ratio of Ki for human 5-HT2B receptor to human 5-HT2C receptor
Mus musculus [20] = assay: Psychedelic effect in C57BL/6J mouse assessed as maximal number of 5-HT2A receptor dependent head-twitch responses by visual observation at 3 mg/kg, sc (reference value: 3); type: functional
[21] = molecular target: T2, 5-hydroxytryptamine receptor 1A (Homo sapiens); assay: Displacement of [3H]-8-OH-DPAT from 5-HT1A receptor (unknown origin) assessed as inhibition binding at 10 uM relative to control
[22] = Ex vivo binding in C57BL/6J mouse brain frontal cortex assessed as inhibition of [3H]Cimbi-36 binding at 1 mg/kg, sc measured after 15 mins by liquid scintillation counting analysis (reference value: 0%); type: functional; conditions: 0.25 h
[23] = Tmax in Wistar rat plasma at 5 mg/kg, po measured upto 48 hrs; type: ADME, organism-based
Mus musculus [24] = assay: Psychedelic effect in C57BL/6J mouse assessed as induction of 5-HT2A receptor dependent head-twitch responses by visual observation at 3 mg/kg, sc in presence of ketanserin 1 mg/kg, sc measured after 24 hrs; type: functional, organism-based
[25] = AUClast in Wistar rat plasma at 1 mg/kg, iv measured upto 48 hrs; type: ADME, organism-based
Mus musculus [26] = assay: Psychedelic effect in C57BL/6J mouse assessed as number of head-twitch responses by visual observation at 3 mg/kg, po measured for 3 mins at 5 to 25 min; type: functional; conditions: 0.05 h

Structure (SMILES): COc1cc([Se]C(F)(F)F)c(OC)cc1CCN.Cl
- Activity (Hippocampus): inactive
- dose excreted at 48 h [1]: 0.3%
- clearance [2]: 15.8 mL/min/kg
- Ki [3]: 6.7 nM
- Activity (Mus musculus [4]): Active
- MRT inf [5]: 90.6 min
- Activity (Mus musculus [6]): Active
- Activity [7]: 947
- Emax [8]: 92%
- AUC(0-t) at 8 h [9]: 3220 ng·h/mL
- MRT inf [10]: 71.4 min
- Ratio Ki (Homo sapiens [11]): 19
- Emax [12]: 87%
- Activity (Mus musculus [13]): Active
- Tmax [14]: 30 min
- Activity [15]: 85%
- fraction unbound at 8 h [16]: 0.014
- Drug metabolism [17]: Metabolite_Detected
- AUC(0-inf) [18]: 3260 ng·h/mL
- Ratio Ki (Homo sapiens [19]): 12
- Activity (Mus musculus [20]): 23
- inhibition [21]: 98%
- inhibition in vivo at 1 mg/kg [22]: 11%
- Tmax [23]: 30 min
- Activity (Mus musculus [24]): inactive
- AUC(0-t) at 48 h [25]: 42.2 ng·h/mL
- Activity (Mus musculus [26]): 25
